Reference: patent US9737596B2, “Vaccine for the prevention of breast cancer recurrence” (The Henry M. Jackson Foundation for the Advancement of …, priority 2008, dated 2017)

Key:
[1] = tested on: disease-free, high risk breast cancer patients; test: Phase II trial: toxicity; type: in vivo, human; settings: six monthly inoculations
Protocol: (§1) Disease-free, high risk breast cancer patients who have completed standard adjuvant therapy were enrolled at multiple sites and randomized to receive six monthly inoculations of either 500 mcg of GP2 with 125 mcg of GM-CSF (Peptide group; PG) or 125 mcg of GM-CSF alone (adjuvant group; AG). Toxicity was assessed after each inoculation. Immunologic response was monitored by measured delayed type hypersensitivity reactions (DTH) and an HLA-A2:Immunoglobulin dimer assay to detect GP2-specific CD8^+ T-lymphocytes. Patients were monitored clinically, radiographically, and pathologically for recurrence.

[2] = tested on: disease-free, high risk breast cancer patients; test: Phase II trial: DTH reaction to GP2; type: in vivo, human
Protocol: as §1

[3] = tested on: GP2-specific CD8+ T-lymphocytes; test: Phase II trial: HLA-A2:Immunoglobulin dimer assay, GP2-specific CD8+ T-lymphocytes; type: in vivo, human
Protocol: as §1

[4] = tested on: disease-free, high risk breast cancer patients; test: Phase II trial: breast cancer recurrence; type: in vivo, human; settings: median follow up of 17.9 months, preliminary data
Protocol: as §1

HLA-A2 molecule = settings: cited from earlier work

Row | Substance | grade 3-5 systemic toxicities [1] | grade 4-5 local toxicities [1] | patients with significant immunity (SI) by DTH (reaction larger than 1 cm) ([2]; post-vaccination) [%] | Median DTH reaction to GP2 ([2]; post-vaccination (after completion of primary series)) [cm] | Median DTH reaction to GP2 ([2]; pre-vaccination) [cm] | % GP2-specific CD8+ lymphocytes ([3]; 6 months after completion of the primary series) [%] | % GP2-specific CD8+ lymphocytes ([3]; baseline) [%] | recurrence rate [4] [%] | binding affinity for the HLA-A2 molecule (HLA-A2 molecule)
1 | GM-CSF: granulocyte macrophage-colony stimulating factor, 125 mcg alone, control adjuvant group of phase II trial | no grade 3-5 systemic toxicities | no grade 4-5 local toxicities | 45.5 | 0.5±3.3 | 0.0±1.0 | 1.41±0.49 | 1.08±0.16 | 13 | –
2 | IISAVVGIL (listed as Homo sapiens) [GP2, nine amino acid peptide from the transmembrane portion of HER2/neu, amino acids 654-662] | – | – | – | – | – | – | – | – | relatively poor binding affinity
